Results taken from ChEMBL document CHEMBL1128594, “Synthesis and antimalarial activities of 12 beta-allyldeoxoartemisinin and its derivatives” (J Med Chem, 1995).
Converted amounts (≈) assume the structure as drawn.

Tests used:
Plasmodium falciparum [1] = experiment: In vitro antimalarial activity against drug-resistant Plasmodium falciparum W-2; format: functional, organism-based
Plasmodium falciparum [2] = experiment: In vitro antimalarial activity against drug-resistant Plasmodium falciparum D6; format: functional, organism-based

Compound	IC50 (Plasmodium falciparum [1])	IC50 (Plasmodium falciparum [2])
CC[C@H]1O[C@@H]2O[C@@]3(C)CC[C@H]4[C@H](C)CC[C@@H]([C@H]1C)[C@@]24OO3	0.29 ng/mL (≈ 0.978 nM)	1.09 ng/mL (≈ 3.68 nM)
CCO[C@H]1O[C@@H]2O[C@@]3(C)CC[C@H]4[C@H](C)CC[C@@H]([C@H]1C)[C@@]24OO3 [ARTEMOTIL]	0.18 ng/mL (≈ 0.576 nM)	0.34 ng/mL (≈ 1.09 nM)
C[C@@H]1CC[C@H]2[C@@H](C)C(=O)O[C@@H]3O[C@@]4(C)CC[C@@H]1[C@]32OO4 [ARTEMISININ]	0.32 ng/mL (≈ 1.13 nM)	0.86 ng/mL (≈ 3.05 nM)
C[C@H]1[C@@H](CCO)O[C@@H]2OC3(C)CC[C@H]4[C@H](C)CC[C@@H]1[C@@]24OO3 (single isomer, unassigned)	0.59 ng/mL (≈ 1.89 nM)	2.04 ng/mL (≈ 6.53 nM)
CCC[C@H]1O[C@@H]2O[C@@]3(C)CC[C@H]4[C@H](C)CC[C@@H]([C@H]1C)[C@@]24OO3	0.16 ng/mL (≈ 0.515 nM)	0.41 ng/mL (≈ 1.32 nM)
C[C@@H]1CC[C@H]2[C@@H](C)CO[C@@H]3OC4(C)CC[C@@H]1[C@]32OO4 (single isomer, unassigned) [DEOXOARTEMISININ]	0.48 ng/mL (≈ 1.79 nM)	1.11 ng/mL (≈ 4.14 nM)
C=CC[C@H]1O[C@@H]2O[C@@]3(C)CC[C@H]4[C@H](C)CC[C@@H]([C@H]1C)[C@@]24OO3	0.59 ng/mL (≈ 1.91 nM)	1.07 ng/mL (≈ 3.47 nM)
